Results: patent publication US5917034A, “Antithrombotic n-amidinopiperidine and benzamidine derivatives” (Pfizer Inc., priority 1995, dated 1999)
Counter-ions that a name gives are not always drawn.

Experiments:
[1] = target: T1, bovine pancreatic trypsin (Bos taurus, UniProt P00760); assay: Chromogenic assay, inhibition of trypsin; type: biochemical; details: in vitro, substrate S2222, pH 8.0, 30° C.
T1 construct: from tissue; host or cells: bovine pancreas
T1 sequence (P00760 24-246): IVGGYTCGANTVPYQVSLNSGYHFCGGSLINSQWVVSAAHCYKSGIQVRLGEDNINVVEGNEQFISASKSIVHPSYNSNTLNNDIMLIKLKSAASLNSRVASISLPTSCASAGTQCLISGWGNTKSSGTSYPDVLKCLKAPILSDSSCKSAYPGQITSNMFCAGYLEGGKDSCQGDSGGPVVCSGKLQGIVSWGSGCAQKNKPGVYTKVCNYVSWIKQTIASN
Method: (§1) The inhibition of thrombin, trypsin, plasmin or factor Xa is measured in 96 well plate chromogenic assays. The percentage inhibition and IC50 are calculated from triplicate samples of an 8 concentration dose-response curve. From the substrate Km and IC50, the Ki for each inhibitor is calculated. All assays are carried out in a total incubation of 200 μl of 50 mM HEPES and 150 mM NaCl at pH 8.0, and all compound dilutions are preincubated with enzyme at room temperature for 15 minutes prior to addition of substrate. After 30 minutes incubation at 30° C., the O.D. is measured at […] in a 96 well plate reader. Thrombin activity is measured using bovine thrombin and S2238 (H-D-Phe-Pip-Arg-pNA), bovine pancreatic trypsin is assayed with S2222 (Benz-Isoleu-Glu-Gly-Arg-pNA), bovine plasma plasmin is assayed with Chromozym PL (Tosyl-Giy-Pro-Lys-pNA)and bovine factor Xa is assayed in 50 mM Tris, 150 mM NaCl, pH 7.5 buffer with S2222.
The following Table illustrates the in vitro inhibitory activities against thrombin and trypsin for a range of the compounds of the invention.

[2] = target: bovine thrombin (Bos taurus, UniProt P00735); assay: Chromogenic assay, inhibition of thrombin; type: biochemical
Method: as §1

Compound	Ki [1] [nM]	Ki [2] [nM]
N=C(N)N1CCC(OCCC2CCCCN2C(=O)[C@H](CC(=O)O)NC2CCCCC2O)CC1 (mixture of isomers) [Example 17, N-[N-(2-Hydroxycyclohexyl)-(S)-α-aspartyl]-2(R,S)-[2-(N-amidino-4-Piperidyloxy)ethyl]piperidine bis-trifluoroacetate]	11000	35
CN(C1CCCC(C)(C)C1)[C@@H](CC(=O)O)C(=O)N1CCCC[C@H]1CCOC1CCN(C(=N)N)CC1 (stereo partly drawn) [Example 25, N-[N-Methyl-N-(3,3-dimethylcyclohexyl)-(S)-α-aspartyl]-2(S)-[2-(N-amidino-4-piperidyloxy)ethyl]piperidine dihydrochloride]	360	2
N=C(N)c1ccc(OCCC2CCCCN2C(=O)[C@H](CC(=O)O)NC2CCCCC2)cc1 (mixture of isomers) [Example 31, N-(N-Cyclohexyl-(S)-α-aspartyl)-2(R,S)-[2-(4-amidinophenoxy)ethyl]piperidine dihydrochloride]	1300	45
N=C(N)N1CCC(OCC[C@@H]2CCCCN2C(=O)[C@H](CC(=O)O)NC2CC3CCC2C3)CC1 (stereo partly drawn) [Example 3, N-[N-(2-Norbornyl)-(S)α-aspartyl]-2(S)-[2-(N-amidino-4-piperidyloxy)ethyl]piperidine dihydrochloride]	1200	4.1
N=C(N)N1CCC(OCCC2CCCCN2C(=O)[C@H](CC(=O)O)NC2CCCCCCC2)CC1 (mixture of isomers) [Example 16, N-(N-Cyclooctyl-(S)-α-aspartyl)-2(R,S)-[2-(N-amidino-4-piperidyloxy)ethyl]piperidine dihydrochloride]	720	–
CCN(C1CCCCC1)[C@@H](CC(=O)O)C(=O)N1CCCCC1CCOC1CCN(C(=N)N)CC1 (mixture of isomers) [Example 29, N-(N-Cyclohexyl-N-ethyl-(S)-α-aspartyl)-2(R,S)-[2-(N-amidino-4-piperidyloxy)ethyl]piperidine dihydrochloride]	5000	16
